Measurements as given in patent US20220395572A1, “C[…] THERAPY FOR TREATMENT OF DISC DEGENERATIVE DISEASE” (FIGENE, LLC, priority 2019, published 2022).

Tests used:
[1] = system: CGRP expression in dorsal root ganglion (DRG) neurons innervating intervertebral discs; settings: cited from earlier work
[2] = system: in vitro formed nucleus pulposus tissues; settings: TNF-alpha 1-5 ng/mL, within 48 hours; cited from earlier work
Dermal fibroblasts = assay: Growth factor production by dermal fibroblasts cultured 48 hours with CBD; assay type: cell-based; settings: various CBD concentrations, OPTI-MEM with 10% fetal calf serum
From the text: (§1) In the groupings of three bars, the middle bar at each concentration represents 100,000 fibroblasts co-cultured with CBD at the indicated concentration. The right bar at each concentration represents 200,000 fibroblasts co-cultured with CBD at the indicated concentration. The left bar at each concentration represents 0 fibroblasts co-cultured with CBD at the indicated concentration;
as §1, with “concentration.” for “concentration;”
Dermal fibroblasts were obtained from Allcells, Inc. and cultured for 48 hours in the indicated concentrations of CBD. […] Cultures were performed in OPTI-MEM media with 10% fetal calf serum.

## etanercept
[1]; direct intradiscal application immediately after disc puncture, rats
  CGRP expression in DRG neurons innervating injured discs: suppressed CGRP expression
[1]; rat L4/5 disc puncture, direct intradiscal application, sham 21%±4%, puncture+saline 32%±7%
  proportion of CGRP-immunoreactive neurons among FluoroGold-labeled neurons: 23%±4%

## TNF-alpha
[2]
  proteoglycan content of NP tissue relative to original: 25%

## C=C(C)C1CCC(C)=CC1c1c(O)cc(CCCCC)cc1O (centres unmarked) [CBD, 2-[3-methyl-6-(1-methylethenyl)-2-cyclohexen-1-yl]-5-pentyl-1,3-benzenediol]
Dermal fibroblasts; FIG. 1
  IGF-1 production from fibroblasts: augmentation of IGF-1 was observed
Dermal fibroblasts; FIG. 2
  EGF-1 production from fibroblasts: augmentation of EGF-1 was observed
